Experimental data: patent US10030016B2 (Sunesis Pharmaceuticals, Inc., priority 2009, dated 2018)
Structures can show the parent of a compound that is named as a salt. Where two headings read alike, the source gives them in different places.

How the values were obtained:
[1] = tested on: phospho-akt (Thr308) in PC-3 cells; assay: Inhibition of phospho-akt (Thr308) in PC-3 cells, MSD phospho-akt 308 ELISA kit; type: cell-based; details: 2 hours, no serum, read-out: EC50
How it was run: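 Electrochemiluminescent MSD ELISA of Thr308-phosphorylated Akt after a 2 h serum-free compound exposure of PC-3 cells (15,000/well, plated overnight). Controls: DMSO (high), 5 μM wortmannin (low). Lysate binding overnight at 4 °C; detection antibody 1 h at room temperature.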

[2] = target: PDK1 (Homo sapiens (Human), UniProt O15530); assay: PDK1 kinase assay (coupled PDK1/AKT/FAM-crosstide assay, IMAP fluorescence polarization); type: biochemical
Chain of PDK1 (O15530 51-359): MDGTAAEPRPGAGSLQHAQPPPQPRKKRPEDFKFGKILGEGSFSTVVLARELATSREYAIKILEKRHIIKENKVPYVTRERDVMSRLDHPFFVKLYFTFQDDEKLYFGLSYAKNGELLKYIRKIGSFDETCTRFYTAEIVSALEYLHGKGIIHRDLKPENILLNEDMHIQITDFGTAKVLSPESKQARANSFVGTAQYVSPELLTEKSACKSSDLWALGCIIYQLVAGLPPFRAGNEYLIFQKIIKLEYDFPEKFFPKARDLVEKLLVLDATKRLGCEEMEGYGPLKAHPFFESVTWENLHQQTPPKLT
How it was run: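 GST-tagged human PDK1 (aa 51-359, 0.75 nM) from insect cells activated unphosphorylated GST-AKT2 (aa 140-467–PIFtide fusion, 10 nM), which phosphorylated 100 nM FAM-crosstide; 40 μM ATP, pH 7.2 Tris/MgCl2, 30 min at 25° C. IMAP fluorescence polarization read-out; ΔmP versus compound concentration fitted with a 4-parameter curve.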

[3] = Homo sapiens, inhibition of P308 Akt in PC-3 cells, MSD
[4] = inhibition of phospo-PDK1 in vitro
[5] = Homo sapiens, inhibition of P308 Akt in PC-3 cells using MSD
[6] = Homo sapiens, PC-3, 2 h, inhibition of P308 Akt in PC-3 cells, MSD

| Structure (SMILES) | EC50 [1, 3] | IC50 [2, 4] | IC50 ([2]; inhibition of PDK1 in vitro) | other results |
| --- | --- | --- | --- | --- |
| O=C(NCc1ccc(F)c(F)c1)c1cccnc1NCc1ccc(-c2cnc3[nH]ncc3c2)nc1 [Example 327] | – | – | < 0.1 µM | EC50 [1, 5]: 1 to 10 µM |
| N#Cc1cnc(NCc2ccc(Oc3cccnc3N)cc2)c(C(=O)NCc2ccc(F)c(F)c2)c1 [Example 313, 2-(4-(2-aminopyridin-3-yloxy)benzylamino)-5-cyano-N-(3,4-difluorobenzyl) nicotinamide] | – | – | > 5 µM | EC50 [1, 5]: > 10 µM |
| C[C@H](NC(=O)c1cc(C#N)cnc1NCc1ccc(-c2cnc(N)c(F)c2)cc1)c1ccc(F)cc1 [Example 110, (S)-2-(4-(6-amino-5-fluoropyridin-3-yl)benzylamino)-5-cyano-N-(1-(4-fluorophenyl)ethyl)nicotinamide] | – | – | < 0.1 µM | EC50 [1, 5]: < 1 µM |
| C[C@H](NC(=O)c1cc(C(F)(F)F)cnc1NCc1ccc(-c2cc3c(N)ncnc3cn2)s1)c1ccc(F)cc1 [Example 8.12.7, 2-({[5-(4-aminopyrido [3,4-d]pyrimidin-6-yl)thiophen-2-yl]methyl}amino)-N-[(1S)-1-(4-fluorophenyl)ethyl]-5-(trifluoromethyl) pyridine-3-carboxamide] | < 1 µM | 0.1 to 1 µM | – | – |
| C[C@H](NC(=O)c1nc(C#N)cnc1NCc1ccc(-c2cnc3[nH]nc(N)c3c2)cc1)c1ccc(F)c(F)c1 [Example 25, (S)-3-(4-(3-amino-1H-pyrazolo[3,4-b]pyridin-5-yl)benzylamino)-6-cyano-N-(1-(3,4-difluorophenyl)ethyl)pyrazine-2-carboxamide] | < 1 µM | < 0.1 µM | – | – |
| CC(C)Oc1cc(CNc2ncccc2C(=O)NC2CC2)cc(-c2c[nH]c3ncc(C(=O)NC4CC4)cc23)c1 [Example 4.1.7, N-cyclopropyl-3-[3-({[3-(cyclopropylcarbamoyl)pyridin-2-yl]amino}methyl)-5-(propan-2-yloxy)phenyl]-1H-pyrrolo[2,3-b] pyridine-5-carboxamide] | 1 to 10 µM | 1 to 5 µM | – | – |
| CC(N)CCc1nc(-c2ccc(CNc3ncc(C(F)(F)F)cc3C(=O)Nc3ccc(F)cc3)cc2)cnc1N (centres unmarked) [Example 86, 2-{4-[5-Amino-6-(3-amino-butyl)-pyrazin-2-yl]-benzylamino}-N-(4-fluoro-phenyl)-5-trifluoro-methyl-nicotinamide] | – | – | < 0.1 µM | EC50 ([1]; inhibition of P308 Akt in PC-3 cells using MSD): < 1 µM |
| C[C@H](NC(=O)c1cc(C#N)cnc1NCc1ccc(-c2ccc(N)nc2)nc1)c1ccc(F)cc1 [Example 68, 2-[(6′-Amino-[2,3′]bipyridinyl-5-ylmethyl)-amino]-5-cyano-N-[(S)-1-(4-fluoro-phenyl)-ethyl]-nicotinamide] | – | – | < 0.1 µM | EC50 [1, 5]: 1 to 10 µM |
| CC(C)Oc1cc(CNc2ncccc2C(=O)NCc2ccc(F)c(F)c2)cc(-c2c[nH]c3ncc(C(=O)NC4CC4)cc23)c1 [Example 4.1.3, N-cyclopropyl-3-{3-[({3-[(3,4-difluoro-benzyl)carbamoyl]pyridin-2-yl}amino)methyl]-5-(propan-2-yloxy)phenyl}-1H-pyrrolo[2,3-b] pyridine-5-carboxamide] | < 1 µM | < 0.1 µM | – | – |
| Cc1cc(-c2ccc(CNc3ncc(C#N)cc3C(=O)N[C@@H](C)c3ccc(F)cc3)cc2)cnc1N [Example 104, (S)-2-(4-(6-amino-5-methylpyridin-3-yl)benzylamino)-5-cyano-N-(1-(4-fluorophenyl)ethyl)nicotinamide] | – | – | < 0.1 µM | EC50 [1, 5]: < 1 µM |
| Nc1n[nH]c2ncc(-c3ccc(CNc4ncc(C(F)(F)F)cc4C(=O)Nc4ccc(C(F)(F)F)nc4)cc3)cc12 [Example 276, 2-(4-(3-amino-1H-pyrazolo [3,4-b]pyridin-5-yl)benzylamino)-5-(trifluoromethyl)-N-(6-(trifluoromethyl)pyridin-3-yl)nicotinamide] | – | – | < 0.1 µM | EC50 [1, 5]: 1 to 10 µM |
| C[C@H](NC(=O)c1cc(C#N)cnc1NCc1ccc(-c2cnc(N)c(CCCN)n2)cc1)c1ccc(F)cc1 [Example 70, 2-{4-[5-Amino-6-(3-amino-propyl)-pyrazin-2-yl]-benzylamino}-5-cyano-N-[(S)-1-(4-fluoro-phenyl)-ethyl]-nicotinamide] | – | – | < 0.1 µM | EC50 [1, 5]: < 1 µM |
| CCC(C)NS(=O)(=O)c1cnc(NCc2ccc(-c3ccc4ncnc(N)c4c3)s2)c(C(=O)NC)c1 (centres unmarked) [Example 8.6.17, 2-(((5-(4-aminoquinazolin-6-yl)thiophen-2-yl)methyl)amino)-5-(N-sec-butylsulfamoyl)-N-methylnicotinamide] | 1 to 10 µM | > 5 µM | – | – |
| C[C@H](NC(=O)c1cc(S(C)(=O)=O)cnc1NCc1ccc(-c2ccc3ncnc(N)c3c2)s1)c1ccc(F)c(F)c1 | < 1 µM | 0.1 to 1 µM | – | – |
| C[C@H](NC(=O)c1nc(C#N)cnc1NCc1ccc(-c2cnc(N)cn2)cc1)c1ccc(F)c(F)c1 [Example 376, (S)-3-(4-(5-aminopyrazin-2-yl)benzylamino)-6-cyano-N-(1-(3,4-difluorophenyl)ethyl)pyrazine-2-carboxamide] | – | – | < 0.1 µM | EC50 [1, 5]: < 1 µM |

Further lines, with some results ahead:

| EC50 [1, 3] | IC50 [2, 4] | IC50 ([2]; inhibition of PDK1 in vitro) | Structure (SMILES) | other results |
| --- | --- | --- | --- | --- |
| < 1 µM | 0.1 to 1 µM | – | N#Cc1cnc(NCc2ccc(-c3ccc4ncnc(N)c4c3)s2)c(C(=O)NCc2ccc(F)c(F)c2)n1 [Example 3.80, 3-(((5-(4-aminoquinazolin-6-yl)thiophen-2-yl)methyl)amino)-6-cyano-N-(3,4-difluorobenzyl)pyrazine-2-carboxamide (TFA salt)] | – |
| 1 to 10 µM | < 0.1 µM | – | Nc1ncnc2ccc(-c3ccc(CNc4nccnc4C(=O)NCc4cccc(F)c4)s3)cc12 [Example 3.73, 3-({[5-(4-aminoquinazolin-6-yl)thiophen-2-yl]methyl}amino)-N-(3-fluorobenzyl) pyrazine-2-carboxamide (TFA salt)] | – |
| > 10 µM | > 5 µM | – | Nc1ncnc2ccc(-c3ccc(CNc4ncccc4C(=O)Nc4ccccc4Cl)s3)cc12 [Example 3.31, 2-({[5-(4-aminoquinazolin-6-yl)thiophen-2-yl]methyl}amino)-N-(2-chlorophenyl)pyridine-3-carboxamide (TFA salt)] | – |
| – | 1 to 5 µM | – | COc1ccc([C@H](COc2ccc3[nH]c(=O)[nH]c3c2)Nc2ncccc2C(=O)N[C@@H](C)c2ccc(F)c(F)c2)cc1 [Example 16.8, N-((S)-1-(3,4-difluorophenyl)ethyl)-2-(((R)-1-(4-methoxyphenyl)-2-(2-oxo-2,3-dihydro-1H-benzo[d]imidazol-5-yloxy)ethyl)amino)nicotinamide] | EC50 [1, 6]: > 10 µM |
| 1 to 10 µM | < 0.1 µM | – | Nc1ncnc2ccc(-c3ccc(CNc4ncccc4C(=O)NCc4ccc(F)c(F)c4F)s3)cc12 [Example 3.16, 2-({[5-(4-aminoquinazolin-6-yl)thiophen-2-yl]methyl}amino)-N-(2,3,4-trifluorobenzyl)pyridine-3-carboxamide (TFA salt)] | – |
| 1 to 10 µM | < 0.1 µM | – | C[C@H](NC(=O)c1cccnc1NCc1ccc(-c2ccc3ncnc(N)c3c2)s1)c1cncc(F)c1 [Example 3.59, (S)-2-(((5-(4-aminoquinazolin-6-yl)thiophen-2-yl)methyl)amino)-N-(1-(5-(fluoropyridin-3-yl)ethyl)nicotinamide (TFA salt)] | – |
| 1 to 10 µM | 0.1 to 1 µM | – | Nc1ncnc2ccc(-c3ccc(CNc4ncccc4C(=O)Nc4cc(F)c(F)c(F)c4)s3)cc12 [Example 3.40, 2-({[5-(4-aminoquinazolin-6-yl)thiophen-2-yl]methyl}amino)-N-(3,4,5-trifluorophenyl) pyridine-3-carboxamide (TFA salt)] | – |
| > 10 µM | < 0.1 µM | – | O=C(NCc1ccc(F)c(F)c1)c1cccnc1NCc1ccc(-c2ccc3ncccc3c2)s1 [Example 4.5, N-(3,4-difluorobenzyl)-2-(((5-(quinolin-6-yl)thiophen-2-yl)methyl)amino)nicotinamide] | – |
| – | 0.1 to 1 µM | – | C/C=C/c1cnc(NCc2ccc(-c3ccc4ncnc(N)c4c3)s2)c(C(=O)NCc2ccc(F)c(F)c2)n1 [Ex. 10.6, 3-({[5-(4-aminoquinazolin-6-yl)thiophen-2-yl]methyl}amino)-N-(3,4-difluorobenzyl)-6-[(1E)-prop-1-en-1-yl] pyrazine-2-carboxamide] | EC50 [1, 6]: 1 to 10 µM |
| 1 to 10 µM | 0.1 to 1 µM | – | CNc1cnc2ccc(-c3ccc(CNc4ncccc4C(=O)N[C@@H](C)c4ccc(F)c(F)c4)s3)cc2n1 [Example 4.28, (S)-N-(1-(3,4-difluoro-phenyl)ethyl)-2-(((5-(3-(methyl)amino)quinoxalin-6-yl)thiophen-2-yl)methylamino) nicotinamide] | – |
| 1 to 10 µM | < 0.1 µM | – | CC(C)Nc1ncnc2ccc(-c3ccc(CNc4ncccc4C(=O)NCc4ccc(F)c(F)c4)s3)cc12 [Example 4.12, N-(3,4-difluorobenzyl)-2-(((5-(4-(isopropylamino)quinazolin-6-yl)thiophen-2-yl)methyl)amino)nicotinamide] | – |
| > 10 µM | > 5 µM | – | Nc1ncnc2ccc(-c3ccc(CNc4ncc(-c5ccccc5)nc4C(=O)NCc4ccc(F)c(F)c4)s3)cc12 [Ex. 10.3, 3-({[5-(4-aminoquinazolin-6-yl)thiophen-2-yl]methyl}amino)-N-(3,4-difluorobenzyl)-6-phenylpyrazine-2-carboxamide] | – |
| 1 to 10 µM | 0.1 to 1 µM | – | Nc1ncnc2ccc(-c3ccc(CNc4ncccc4C(=O)Nc4ccc(F)c(F)c4)s3)cc12 [Example 3.24, 2-({[5-(4-aminoquinazolin-6-yl)thiophen-2-yl]methyl}amino)-N-(3,4-difluorophenyl)pyridine-3-carboxamide (TFA salt)] | – |
